Data on 28 molecules can be found in patent US6136847A, “Water-soluble trioxanes as potent and safe antimalarial agents” (Johns Hopkins University, priority 1999, dated 2000).

For one data set, the system named is rats. Particulars: high doses; cited from earlier work.
For another data set, the system named is Plasmodium falciparum. The data set can be described thus: In vitro antimalarial assay (Plasmodium falciparum). Format: cell-based. Particulars: for IC50: Plasmodium falciparum. As for the experimental part:
(§1) The protozoan Plasmodium falciparum is a causative agent of malaria, the single most critical infectious disease of mankind. The in vitro antimalarial activity of the C3 -substituted trioxanes was determined according to the method described in Posner et al. (13). The in vivo antimalarial activity was determined as described in Peters et al. (14).
Tables 1 and 2 present a tabulation of a number of compounds which have been synthesized along with the IC50 (in nM).

The next data set concerns P. berghei. Nature of the data set: In vivo antimalarial assay, mice infected with P. berghei malaria. The conditions noted are these: Plasmodium berghei. How it is done: as §1
Data set [1] is described as follows: Water solubility in pH 7.4 aqueous solution. Format: physicochemical.
In another data set the test system is erythrocytes. The data set can be described thus: Hemolysis of erythrocytes on daily IV administration to rats for 14 days. Format: in vivo, rat. The conditions noted are these: daily for 14 days, artelinic acid even at a dose four-fold less than MHP-34a. From the text: 4. They are nontoxic in therapeutic dose range.
The subject of data set [2] is mouse neuroblastoma cells. The conditions noted are these: cited from earlier work.
Where [3] appears, read: C3-Aryl C12-Methoxy Trioxanes, Expansion data (quadruplicate measurements), read-out: Antimalarial Activity, IC50 (Table 1).
Setting [4] is: in vitro, read-out: In vitro antimalarial assay: IC50.
The mark [5] stands for this setting: C3-Substituted C12-Methoxy Trioxanes, Expansion data (quadruplicate measurements), read-out: Antimalarial Activity, IC50 (Table 2).
[6] abbreviates: IV, mice infected with P. berghei, read-out: ED90, IV administration.

The structures appear in SMILES notation. ≈ marks a conversion by molar mass, not a printed value. Where two headings read alike, the source gives them in different places.

As a reminder, the IC50 is the concentration at which inhibition is half-maximal. In general, solubility refers to the dissolved amount per volume that the medium holds.

As to `CO[C@H]1O[C@@H]2O[C@@]3(C)CC[C@H]4[C@H](C)CC[C@@H]([C@H]1C)[C@@]24OO3` [artemether], the neurotoxicity in rats entry with rats is “neurotoxicity has been seen”.

For the molecule `CO[C@H]1O[C@@]2(c3ccc(F)cc3)CC[C@H]3CCCC[C@]31OO2` (relative stereo) [9b], the IC50 in the data set with Plasmodium falciparum (setting [3]) worked out at 30 nM.

Take `CCOC(=O)Cn1cccc1[C@@H]1O[C@@H]2O[C@@]3(C)CC[C@H]4[C@H](C)CC[C@@H]([C@H]1C)[C@@]24OO3` [MHP-84, 10a-(1'-(Ethoxycarbonylmethyl)pyrrol-2'-yl)-10-deoxoartemisinin]: in the data set with Plasmodium falciparum (printed as In vivo, read-out: In vitro antimalarial assay: IC50), the IC50 amounted to 9.1 nM.

As for `C[C@H]1[C@H](c2cccn2CC(=O)O)O[C@@H]2O[C@@]3(C)CC[C@H]4[C@H](C)CC[C@@H]1[C@@]24OO3` [MHP-153, 10a-(1'-(Carboxymethyl)pyrrol-2'-yl)-10-deoxoartemisinin], the IC50 in the data set with Plasmodium falciparum (setting [4]) was 36 nM.

As to `CO[C@H]1O[C@@]2(c3ccc(C(F)(F)F)cc3)CC[C@H]3CCCC[C@]31OO2` (relative stereo) [120b], the IC50 in the data set with Plasmodium falciparum (setting [5]) was 53 nM.

With `CO[C@@H]1O[C@@]2(c3ccc(F)cc3C)CC[C@H]3CCCC[C@]31OO2` (relative stereo) [10a], in the data set with Plasmodium falciparum (setting [3]), the IC50 was 99 nM.

`COC1OC2(CCC(C)C)CCC3CCCCC31OO2` (stereo not drawn) [C3 -(CH3)2 CHCH2 CH2 analog]: the “potency increased by a factor of, over the C3 methyl analog” value in the data set on Plasmodium falciparum (relative to C3 methyl analog) was 5.

With `CO[C@@H]1O[C@@]2(c3ccc(CO)cc3)CC[C@H]3CCCC[C@]31OO2` (relative stereo) [12a], the IC50 in the data set with Plasmodium falciparum (setting [3]) turned out to be 78 nM.

As to `CO[C@@H]1O[C@@]2(c3ccc(F)cc3)CC[C@H]3CCCC[C@]31OO2` (relative stereo) [9a], the IC50 with Plasmodium falciparum (setting [3]) was 65 nM.

With `COc1ccc(C23CCC4CCCCC4(OO2)C(OC)O3)cc1` (stereo not drawn) [compound 11], in the data set on Plasmodium falciparum (setting [3]), the IC50 is over 2500 nM.

As for `C[C@@H]1CC[C@H]2[C@@H](C)C(=O)O[C@@H]3O[C@@]4(C)CC[C@@H]1[C@]32OO4` [Artemisinin, artemisinin, reference compound], the half-inhibitory concentration (IC50) in the data set with Plasmodium falciparum (setting [4]) came out at 10 nM.

Turning to `CO[C@H]1O[C@@]2(c3ccc(CO)cc3)CC[C@H]3CCCC[C@]31OO2` (relative stereo) [12b], the IC50 in the data set with Plasmodium falciparum (setting [3]) is 15 nM.

Regarding `CO[C@@H]1O[C@@]2(CF)CC[C@H]3CCCC[C@]31OO2` (relative stereo) [118a], in the data set on Plasmodium falciparum (setting [5]), the IC50 was found to be 320 nM.

For `CO[C@H]1O[C@@]2(c3ccc(-c4ccccc4)cc3)CC[C@H]3CCCC[C@]31OO2` (relative stereo) [8b], the IC50 in the data set with Plasmodium falciparum (setting [3]) was found to be 68 nM.

With `CO[C@H]1O[C@@]2(CF)CC[C@H]3CCCC[C@]31OO2` (relative stereo) [118b], in the data set with Plasmodium falciparum (setting [5]), the IC50 was 160 nM.

For `CO[C@@H]1O[C@@]2(c3ccccc3)CC[C@H]3CCCC[C@]31OO2` (relative stereo) [16a], the IC50 in the data set on Plasmodium falciparum (setting [3]) was found to be 100 nM.

For the molecule `O=C(O)c1ccc(CO[C@@H]2O[C@@]3(c4ccc(F)cc4)CC[C@H]4CCCC[C@]42OO3)cc1` (relative stereo) [(p-Carboxy)benzyloxy Trioxane (α)-7a], the half-maximal inhibitory concentration (IC50) with Plasmodium falciparum (setting [4]) turned out to be 47 nM.

As for `C[C@H]1[C@@H](OCc2ccc(C(=O)O)cc2)O[C@@H]2O[C@@]3(C)CC[C@H]4[C@H](C)CC[C@@H]1[C@@]24OO3` [artelinic acid, Artelinic acid, reference compound], the ED50 in the data set with P. berghei (oral, mice infected with P. berghei, comparator, read-out: SD50, oral) stood at 56 mg/kg. In data set [1], the solubility was about 2 mM (≈ 0.837 mg/mL). Moreover, the hemolysis of erythrocytes entry with erythrocytes is given as “time-dependent hemolysis”.

Regarding `C[C@H]1[C@H](C(=O)O)O[C@@H]2O[C@@]3(C)CC[C@H]4[C@H](C)CC[C@@H]1[C@@]24OO3` [MHP-108, 10α-Carboxy-10-deoxoartemisinin], the half-inhibitory concentration (IC50) with Plasmodium falciparum (setting [4]) came to 570 nM.

Turning to `CO[C@H]1O[C@@]2(c3ccc(C(=O)O)cc3)CC[C@H]3CCCC[C@]31OO2` (relative stereo) [MHP-34b, 3-(4'-Carboxyphenyl)-12β-methoxy Trioxane], the half-inhibitory concentration (IC50) in the data set on Plasmodium falciparum (setting [4]) was found to be 150 nM. The ED90 with P. berghei (setting [6]) stood at 60 mg/kg/day. In addition, the solubility in data set [1] was about 60 mM (≈ 20.1 mg/mL).

Consider `CO[C@@H]1O[C@@]2(c3ccc(-c4ccccc4)cc3)CC[C@H]3CCCC[C@]31OO2` (relative stereo) [8a], for which the half-inhibitory concentration (IC50) in the data set with Plasmodium falciparum (setting [3]) came to 76 nM.

Regarding `CO[C@@H]1O[C@@]2(c3ccc(C(=O)O)cc3)CC[C@H]3CCCC[C@]31OO2` (relative stereo) [MHP-34a, 3-(4'-Carboxyphenyl)-12α-methoxy Trioxane], in the data set on Plasmodium falciparum (setting [4]), the IC50 is 1020 nM. Further, the ED50 was 9.5 mg/kg in the data set on P. berghei (po, read-out: In vivo antimalarial assay: ED50, oral) and 19.5 mg/kg in the data set on P. berghei (sc, read-out: In vivo antimalarial assay: ED50, subcutaneous). In addition, the ED90 is 92 mg/kg/day in the data set with P. berghei (sc, read-out: In vivo antimalarial assay: ED90, subcutaneous); 60 mg/kg/day in the data set on P. berghei (setting [6]); 46 mg/kg/day in the data set with P. berghei (oral, mice infected with P. berghei, read-out: In vivo antimalarial assay: ED90, oral). In data set [1], the solubility was about 90 mM (≈ 30.1 mg/mL). Besides, the hemolysis of erythrocytes entry in the data set on erythrocytes was “no hemolysis of erythrocytes”.

In the case of `C[C@H]1[C@@H](O)O[C@@H]2O[C@@]3(C)CC[C@H]4[C@H](C)CC[C@@H]1[C@@]24OO3` [dihydroartemesisin, Dihydroartemisinin], in data set [2], the “neurotoxicity in mouse neuroblastoma cells” value is “neurotoxicity has been seen”.

Take `O=C(O)c1ccc(CO[C@H]2O[C@@]3(c4ccc(F)cc4)CC[C@H]4CCCC[C@]42OO3)cc1` (relative stereo) [(p-Carboxy)benzyloxy Trioxane (β)-7a]: the IC50 with Plasmodium falciparum (setting [4]) stood at 40 nM.

On to `CO[C@@H]1O[C@@]2(c3ccc(C(F)(F)F)cc3)CC[C@H]3CCCC[C@]31OO2` (relative stereo) [120a], for which the IC50 in the data set on Plasmodium falciparum (setting [5]) was found to be 39 nM.

On to `CO[C@H]1O[C@@]2(c3ccccc3)CC[C@H]3CCCC[C@]31OO2` (relative stereo) [16b], for which the IC50 in the data set with Plasmodium falciparum (setting [3]) is 38 nM.

`CO[C@H]1O[C@@]2(c3ccc(F)cc3C)CC[C@H]3CCCC[C@]31OO2` (relative stereo) [10b]: the IC50 in the data set with Plasmodium falciparum (setting [3]) was determined as 34 nM.

On to `CO[C@@H]1O[C@@]2(c3ccco3)CC[C@H]3CCCC[C@]31OO2` (relative stereo) [compound 13], for which the 50% inhibitory concentration (IC50) in the data set with Plasmodium falciparum (setting [3]) stood at 600 nM.
